# Data as given in patent US8859574B2 (IRM LLC, priority 2008, dated 2014).
# Molecular target: T1, IGF-1R Ba/F3 (Homo sapiens, UniProt P08069)
# T1 construct: fused on or other part: TEL- (or BCR-) IGF-1R in Ba/F3: the kinase part holds the site
# Assay: Ba/F3 Cell Viability Inhibition Assay (IGF-1R Ba/F3)
# Type: cell-based, murine
# Conditions: Tel-TK transformed Ba/F3 cells, 48 hours, Britelite luminescence
# From the text: The IC50 of a drug may be determined constructing a dose-response curve and examining the effect of different concentrations of antagonist on reversing agonist activity. IC50 values may be calculated for a given antagonist by determining the concentration needed to inhibit half of the maximum biological response of the agonist. To calculate IC50 values, a series of dose-response data (e.g., drug concentrations x1, x2, . . . , xn and growth inhibition y1, y2, . . . , yn, the values of y are in the range of 0-1) is generated. IC50 values may be determined by a computer-aided system using the formula: y=D+((A−D)/(1+10^(x-log(IC50)B) • where A is the ratio of growth inhibition between lowest drug concentration and control; B is the slope of sigmoidal curvel; and D is the ratio of growth inhibition between highest drug concentration and control.
# Ba/F3 is a murine IL-3-dependent pro-B lymphoma cell line. Parental Ba/F3 cells are used to generate a panel of sublines whose proliferation and survival is rendered IL-3-independent by stable transduction with individual tyrosine kinases activated by fusion with the amino-terminal portion of TEL (amino acid 1-375) or BCR. In order to generate Ba/F3 cell lines transformed by Tel-Tyrosine Kinase (TK) fusions, parental Ba/F3 cells are infected with a retrovirus harboring each TEL-fusion kinase and subjected to puromycin selection and IL-3 withdrawal to obtain IL-3-independent, transformed Ba/F3 cells.
# Each transformed Ba/F3 cells are cultured in RPMI-1640 media (Gibco Cat #11875093, Carlsbad, Calif.) supplemented with 10% FBS (Hyclone Cat #SV30014.03, Logan, Utah), 4.5 g/L glucose (Sigma #G5400, St. Louis, Mo.), 1.5 g/L sodium bicarbonate (Biowhittaker #17-613E, Walkersville, Md.) and Pen/Strep (Gibco #10378-016, Carlsbad, Calif.). Cells are splitted twice weekly.
# The potency of test compounds against various Tel-TK transformed Ba/F3 lines is determined as follows. Exponentially growing BaF3 Tel-TK cells are diluted in fresh medium to 75,000 cells/mL and seeded into 384-well plates (3750 cells/well) at 50 μL/well using a μFill liquid dispenser (BioTek, Winooski, Vt., USA). Duplicate plates are run for each cell line. Test and control compounds are serially diluted with DMSO and arrayed in a polypropylene 384-well plate. […] of compound is transferred into the assay plates using a pin-transfer device, and the plates are incubated at 37° C. (5% CO2) for 48 hours. 25 μL Britelite (Perkin Elmer) is added and luminescence is quantified using Analyst GT (Molecular Devices). Custom curve-fitting software is used to produce a logistic fit of percent cell viability as a function of the logarithm of inhibitor concentration. The IC50 is interpolated as the concentration of compound needed to reduce cell viability to 50% of a DMSO control. Parental Ba/F3 cells that are maintained and cultured in presence of IL-3 (1 ng/ml in final) are diluted in fresh medium containing IL-3 (1 ng/ml in final) to 75,000 cells/mL following the same procedure as described above.
# T1 sequence (P08069 999-1274 limits assumed): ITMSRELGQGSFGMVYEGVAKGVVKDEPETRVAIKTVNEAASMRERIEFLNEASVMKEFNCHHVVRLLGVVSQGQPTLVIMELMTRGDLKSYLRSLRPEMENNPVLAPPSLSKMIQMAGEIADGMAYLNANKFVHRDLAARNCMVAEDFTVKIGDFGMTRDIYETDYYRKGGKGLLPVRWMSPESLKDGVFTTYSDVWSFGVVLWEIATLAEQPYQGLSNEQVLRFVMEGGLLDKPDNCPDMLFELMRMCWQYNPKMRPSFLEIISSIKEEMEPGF
row,Compound,IC50 [nM]
1,"Cc1cc(Nc2nc(Nc3cc(C)c(C4CCN(C(C)C(N)=O)CC4)cc3F)ncc2Cl)n[nH]1 (stereo not shown) [Compound 49, 2-(4-(4-(5-chloro-4-(5-methyl-1H-pyrazol-3-ylamino)pyrimidin-2-ylamino)-5-fluoro-2-methylphenyl)piperidin-1-yl)propanamide]",15
2,"Cc1cc(Nc2nc(Nc3cc(C)c(C4CCN(C(=O)c5ccc[nH]5)CC4)cc3F)ncc2Cl)n[nH]1 [Compound 124, (4-(4-(5-chloro-4-(5-methyl-1H-pyrazol-3-ylamino)pyrimidin-2-ylamino)-5-fluoro-2-methylphenyl)piperidin-1-yl)(1H-pyrrol-2-yl)methanone]",145
3,"Cc1cc(Nc2nc(Nc3cc(C)c(C4CCN([C@H](C)C(N)=O)CC4)cc3C)ncc2Cl)n[nH]1 [Compound 167, (R)-2-(4-(4-(5-chloro-4-(5-methyl-1H-pyrazol-3-ylamino)pyrimidin-2-ylamino)-2,5-dimethylphenyl)piperidin-1-yl)propanamide]",6
4,"Cc1cc(Nc2nc(Nc3cc(C)c(C4CCN(CC5(C#N)CC5)CC4)cc3C)ncc2Cl)n[nH]1 [Compound 198, 1-((4-(4-(5-chloro-4-(5-methyl-1H-pyrazol-3-ylamino)pyrimidin-2-ylamino)-2,5-dimethylphenyl)piperidin-1-yl)methyl)cyclopropanecarbonitrile]",22
5,"Cc1cc(Nc2nc(Nc3cc(C)c(C4CCN(Cc5ccncc5)CC4)cc3C)ncc2Cl)n[nH]1 [Compound 309, 5-chloro-N2-(2,5-dimethyl-4-(1-(pyridin-4-ylmethyl)piperidin-4-yl)phenyl)-N4-(5-methyl-1H-pyrazol-3-yl)pyrimidine-2,4-diamine]",8
6,"Cc1cc(Nc2nc(Nc3cc(C)c(C4CCN(S(=O)(=O)C5CC5)CC4)cc3F)ncc2Cl)n[nH]1 [Compound 64, 5-chloro-N2-(4-(1-(cyclopropylsulfonyl)piperidin-4-yl)-2-fluoro-5-methylphenyl)-N4-(5-methyl-1H-pyrazol-3-yl)pyrimidine-2,4-diamine]",59
7,"CCc1cc(Nc2nc(Nc3cc(C)c(C4CCN(C)CC4)cc3F)ncc2Cl)n[nH]1 [Compound 271, 5-chloro-N4-(5-ethyl-1H-pyrazol-3-yl)-N2-(2-fluoro-5-methyl-4-(1-methylpiperidin-4-yl)phenyl)pyrimidine-2,4-diamine]",13
8,"Cc1cc(Nc2nc(Nc3cc(C)c(C4CCN(C(=O)[C@@H]5CCN5)CC4)cc3F)ncc2Cl)n[nH]1 [Compound 132, (S)-azetidin-2-yl(4-(4-(5-chloro-4-(5-methyl-1H-pyrazol-3-ylamino)pyrimidin-2-ylamino)-5-fluoro-2-methylphenyl)piperidin-1-yl)methanone]",161
9,"Cc1cc(C2CCN(CCO)CC2)c(C)cc1Nc1ncc(Cl)c(Nc2cc(C3CC3)[nH]n2)n1 [Compound 204, 2-(4-(4-(5-chloro-4-(5-cyclopropyl-1H-pyrazol-3-ylamino)pyrimidin-2-ylamino)-2,5-dimethylphenyl)piperidin-1-yl)ethanol]",16
10,"Cc1cc(Nc2nc(Nc3cc(C)c(C4CCN(CC#N)CC4)cc3F)ncc2Cl)n[nH]1 [Compound 199, 2-(4-(4-(5-chloro-4-(5-methyl-1H-pyrazol-3-ylamino)pyrimidin-2-ylamino)-5-fluoro-2-methylphenyl)piperidin-1-yl)acetonitrile]",77
11,"Cc1cc(Nc2nc(Nc3cc(C)c(C4CC[N+]([O-])(C5CCOCC5)CC4)cc3F)ncc2Cl)n[nH]1 (stereo not shown) [Compound 294, 4-(4-(5-chloro-4-(5-methyl-1H-pyrazol-3-ylamino)pyrimidin-2-ylamino)-5-fluoro-2-methylphenyl)-1-(tetrahydro-2H-pyran-4-yl)piperidine 1-oxide]",64
12,"Cc1cc(Nc2nc(Nc3cc(C)c(C4CCN(C5CNC5)CC4)cc3F)ncc2Cl)n[nH]1 [Compound 296, N2-(4-(1-(azetidin-3-yl)piperidin-4-yl)-2-fluoro-5-methylphenyl)-5-chloro-N4-(5-methyl-1H-pyrazol-3-yl)pyrimidine-2,4-diamine]",101
13,"Cc1cc(Nc2nc(Nc3cc(C)c(C4CCN(Cc5cnccn5)CC4)cc3C)ncc2Cl)n[nH]1 [Compound 318, 5-chloro-N2-(2,5-dimethyl-4-(1-(pyrazin-2-ylmethyl)piperidin-4-yl)phenyl)-N4-(5-methyl-1H-pyrazol-3-yl)pyrimidine-2,4-diamine]",10
14,"CCc1cnc(N2CCC(c3cc(F)c(Nc4ncc(Cl)c(Nc5cc(C)[nH]n5)n4)cc3C)CC2)nc1 [Compound 149, 5-Chloro-N2-(4-(1-(5-ethylpyrimidin-2-yl)piperidin-4-yl)-2-fluoro-5-methylphenyl)-N4-(5-methyl-1H-pyrazol-3-yl)pyrimidine-2,4-diamine]",955
15,"CNC(=O)[C@H](C)N1CCC(c2cc(C)c(Nc3ncc(Cl)c(Nc4cc(C)[nH]n4)n3)cc2C)CC1 [Compound 168, (S)-2-(4-(4-(5-chloro-4-(5-methyl-1H-pyrazol-3-ylamino)pyrimidin-2-ylamino)-2,5-dimethylphenyl)piperidin-1-yl)-N-methylpropanamide]",10
16,"CCNC(=O)C(CC)N1CCC(c2cc(C)c(Nc3ncc(Cl)c(Nc4cc(C)[nH]n4)n3)cc2C)CC1 (stereo not shown) [Compound 190, 2-(4-(4-(5-chloro-4-(5-methyl-1H-pyrazol-3-ylamino)pyrimidin-2-ylamino)-2,5-dimethylphenyl)piperidin-1-yl)-N-ethylbutanamide]",7
17,"Cc1cc(Nc2nc(Nc3cc(C)c(C4CCN(C(C)C(=O)O)CC4)cc3F)ncc2Cl)n[nH]1 (stereo not shown) [Compound 54, 2-(4-(4-(5-chloro-4-(5-methyl-1H-pyrazol-3-ylamino)pyrimidin-2-ylamino)-5-fluoro-2-methylphenyl)piperidin-1-yl)propanoic acid]",1530
18,"CNC(=O)CN1CCC(c2cc(C)c(Nc3ncc(C(F)(F)F)c(Nc4cc(C)[nH]n4)n3)cc2C)CC1 [Compound 203, 2-(4-(2,5-dimethyl-4-(4-(5-methyl-1H-pyrazol-3-ylamino)-5-(trifluoromethyl)pyrimidin-2-ylamino)phenyl)piperidin-1-yl)-N-methylacetamide]",15
19,"CCN1CCC(c2cc(F)c(Nc3ncc(Cl)c(Nc4cc(C)[nH]n4)n3)cc2C)CC1 [Compound 232, 5-chloro-N^2-(4-(1-ethylpiperidin-4-yl)-2-fluoro-5-methylphenyl)-N^4-(5-methyl-1H-pyrazol-3-yl)pyrimidine-2,4-diamine]",20
20,"Cc1cc(Nc2nc(Nc3cc(C)c(C4CCCN(C(=O)CN(C)C)C4)cc3C)ncc2Cl)n[nH]1 (stereo not shown) [Compound 180, 1-(3-(4-(5-chloro-4-(5-methyl-1H-pyrazol-3-ylamino)pyrimidin-2-ylamino)-2,5-dimethylphenyl)piperidin-1-yl)-2-(dimethylamino)ethanone]",25
21,"COCCN1CCC(c2cc(C)c(Nc3ncc(Cl)c(Nc4cc(C)[nH]n4)n3)cc2C)CC1 [Compound 212, 5-chloro-N2-(4-(1-(2-methoxyethyl)piperidin-4-yl)-2,5-dimethylphenyl)-N4-(5-methyl-1H-pyrazol-3-yl)pyrimidine-2,4-diamine]",13
22,"Cc1cc(Nc2nc(Nc3cc(C)c(C4CCN(C(=O)c5nc(C(C)C)no5)CC4)cc3F)ncc2Cl)n[nH]1 [Compound 265, (4-(4-(5-Chloro-4-(5-methyl-1H-pyrazol-3-ylamino)pyrimidin-2-ylamino)-5-fluoro-2-methylphenyl)piperidin-1-yl)(3-isopropyl-1,2,4-oxadiazol-5-yl)methanone]",91
